Laboratory results reported in US5726159A, “Antithrombotic agents” (Eli Lilly and Company, priority 1995, dated 1998).
Structures can show the parent of a compound that is named as a salt.

What was measured:
Type in all cases: biochemical
Settings in all cases: concentration required to double the clotting time
Human plasma [1] = test: Human plasma anticoagulation, prothrombin time (PT)
Experimental: (§1) Dog plasma and rat plasma is obtained from conscious mixed-breed hounds (either sex, Hazelton-LRE, Kalamazoo, Mich., U.S.A.) or from anesthetized male Sprague-Dawley rats (Harlan Sprague-Dawley, Inc., Indianapolis, Ind., U.S.A.) by venipuncture into 3.8 percent citrate. Fibrinogen is prepared from in-date ACD human blood as the fraction I-2 according to previous procedures and specifications. […] Human fibrinogen is also purchased as 98 percent pure/plasmin free from American Diagnostica, Greenwich, Conn. Coagulation reagents ACTIN, Thromboplastin, and Human plasma are from Baxter Healthcare Corp., Dade Division, Miami, Fla. Bovine thrombin from Parke-Davis ([…], Mich.) is used for coagulation assays in plasma.
(§2) Coagulation assay procedures are as previously described. […] A CoAScreener coagulation instrument (American LABor, Inc.) is used for all coagulation assay measurements. The prothrombin time (PT) is measured by adding 0.05 mL saline and 0.05 mL Thromboplastin-C reagent to 0.05 mL test plasma. The activated partial thromboplastin time (APTT) is measured by incubation of 0.05 mL test plasma with 0.05 mL Actin reagent for 120 seconds followed by 0.05 mL CaCl2 (0.02M). The thrombin time (TT) is measured by adding 0.05 mL saline and 0.05 mL thrombin (10 NIH units/mL) to 0.05 mL test plasma. The compounds of Formula I are added to human or animal plasma over a wide range of concentrations to determine prolongation effects on the APTT, PT, and TT assays. Linear extrapolations are performed to estimate the concentrations required to double the clotting time for each assay.

Human plasma [2] = test: Human plasma anticoagulation, thrombin time (TT)
Experimental: as §1, §2

Human plasma [3] = test: Human plasma anticoagulation, activated partial thromboplastin time (APTT)
Experimental: as §1, §2

Compound	2x Clotting time PT (Human plasma [1])	2x Clotting time TT (Human plasma [2])	2x Clotting time APTT (Human plasma [3])
O=C(O)CN[C@H](CC1CCCCC1)C(=O)N1CCC[C@H]1C(=O)NCCCC1CCNCC1 [Example 55, HO2 CCH2 -D-Cha-Pro-4-NHCH2 CH2 CH2 -piperidine.HCl]	> 91,000 ng/mL	55,800 ng/mL	> 91,000 ng/mL
N=C(N)Nc1ccc(CNC(=O)[C@@H]2CCCN2C(=O)[C@@H]2NCC[C@@H]3CCCC[C@@H]32)cc1 [Example 38, D-1-Piq-Pro-p-NHCH2 C6 H4 NHC(NH)NH2.2HCl]	11,100 ng/mL	540 ng/mL	6,100 ng/mL
N=C(N)c1ccc(CNC(=O)[C@@H]2CCCN2C(=O)[C@@H](CC2CCCCC2)NCC(=O)O)nc1 [Example 66, HO2 CCH2 -D-Cha-Pro-2-NHCH2 -5-amidinopyridine.HCl]	270 ng/mL	7.9 ng/mL	180 ng/mL
O=C(O)CN[C@H](CC1CCCCC1)C(=O)N1CCC[C@H]1C(=O)NCCCC1=CCNCC1 [Example 60, HO2 CCH2 -D-Cha-Pro-4-NHCH2 CH2 CH2 -3,4-dehydro-piperidine.HCl]	77,700 ng/mL	3,200 ng/mL	22,200 ng/mL
O=C(O)CN[C@H](CC1CCCCC1)C(=O)N1CCC[C@H]1C(=O)NCCC1=CCNCC1 [Example 59, HO2 CCH2 -D-Cha-Pro-4-NHCH2 CH2 -3,4-dehydro-piperidine.HCl]	7,000 ng/mL	420 ng/mL	5,500 ng/mL
N=C(N)N1CCC(CNC(=O)[C@@H]2CCCN2C(=O)[C@@H](CC2CCCCC2)NCC(=O)O)CC1 [Example 56, HO2 CCH2 -D-Cha-Pro-4-NHCH2 -1-amidinopiperidine.HCl]	200 ng/mL	5 ng/mL	160 ng/mL
N=C(N)NCCCCCCNC(=O)[C@@H]1CCCN1C(=O)[C@H](N)Cc1ccccc1 [Example 5, D-Phe-Pro-NH(CH2)6 NHC(NH)NH2.HCl]		30,000 ng/mL	
CCS(=O)(=O)N[C@H](Cc1ccccc1)C(=O)N1CCC[C@H]1C(=O)NCCc1cccc(C(=N)N)c1 [Example 27, EtSO2 -D-Phe-Pro-m-NHCH2 CH2 -C6 H4 C(=NH)NH2.HCl]	27,000 ng/mL	1,940 ng/mL	27,800 ng/mL
D-Phe-Pro-p-NHCH2 C6 H4 C(NH)NH2.HCl [Example 15]		9 ng/mL	89 ng/mL
N=C(N)c1ccc(CNC(=O)[C@@H]2C[C@@H]3CCCC[C@@H]3N2C(=O)[C@H]2CCCCN2)cc1 [Example 20, D-hPro-Ohi-p-NHCH2 C6 H4 C(NH)NH2.3HCl]	600 ng/mL	62 ng/mL	550 ng/mL
HOOCCH2 -D-hPhe-Pro-p-NHCH2 C6 H4 C(NH)NH2.HCl [Example 87]	310 ng/mL	9 ng/mL	260 ng/mL
Nc1cc(CNC(=O)[C@@H]2CCCN2C(=O)[C@@H](CC2CCCCC2)NCC(=O)O)ccn1 [Example 73, HO2 CCH2 -D-Cha-Pro-4-NHCH2 -2-aminopyridine.HCl]	330 ng/mL	21 ng/mL	340 ng/mL
CCS(=O)(=O)N[C@H](Cc1ccccc1)C(=O)N1CCC[C@H]1C(=O)NCc1cccc(C(=N)N)c1 [Example 24, EtSO2 -D-Phe-Pro-m-NHCH2 -C6 H4 C(=NH)NH2.HCl]	25,000 ng/mL	1,000 ng/mL	25,900 ng/mL
N=C(N)NCc1ccc(CNC(=O)[C@@H]2CCCN2C(=O)[C@H](N)Cc2ccccc2)cc1 [Example 9, D-Phe-Pro-p-NHCH2 -C6 H4 CH2 NHC(NH)NH2.2TFA]		> 91,000 ng/mL	
CCS(=O)(=O)N[C@H](Cc1ccccc1)C(=O)N1CCC[C@H]1C(=O)NCc1cccc(NC(=N)N)c1 [Example 36, EtSO2 -D-Phe-Pro-m-NHCH2 C6 H4 NHC(NH)NH2.HCl]	> 91,000 ng/mL	7,700 ng/mL	> 91,000 ng/mL
NCc1ccc(CNC(=O)[C@@H]2CCCN2C(=O)[C@H](N)Cc2ccccc2)cc1 [Example 10, D-Phe-Pro-p-NHCH2 C6 H4 CH2 NH2.HCl]		420 ng/mL	
N=C(N)Nc1cccc(CNC(=O)[C@@H]2CCCN2C(=O)[C@@H]2NCC[C@@H]3CCCC[C@@H]32)c1 [Example 40, D-1-Piq-Pro-m-NHCH2 C6 H4 NHC(NH)NH2.2HCl]	> 91,000 ng/mL	35,100 ng/mL	> 91,000 ng/mL

Compound	2x Clotting time PT (Human plasma [1])	2x Clotting time TT (Human plasma [2])	2x Clotting time APTT (Human plasma [3])
CCS(=O)(=O)N[C@H](Cc1ccccc1)C(=O)N1CCC[C@H]1C(=O)NCCc1ccc(NC(=N)N)cc1 [Example 35, EtSO2 -D-Phe-Pro-p-NHCH2 CH2 C6 H4 CNH(NH)NH2.HCl]	78,400 ng/mL	4,500 ng/mL	50,400 ng/mL
CCS(=O)(=O)N[C@H](CC1CCCCC1)C(=O)N1CCC[C@H]1C(=O)NCc1ccnc(N)c1 [Example 83, EtSO2 -D-Cha-Pro-4-NHCH2 -2-aminopyridine.HCl]	1,300 ng/mL	91 ng/mL	1,000 ng/mL
N=C(N)c1ccc(CNC(=O)CN(CCc2ccccc2)C(=O)CNCC(=O)O)cc1 [Example 89, HOOCCH2 -Gly-N-C6 H5 CH2 CH2 Gly-p-NHCH2 C6 H4 C(NH)NH2.HCl]	37,000 ng/mL	570 ng/mL	51,000 ng/mL
N=C(N)c1cccc(CCCNC(=O)[C@@H]2CCCN2C(=O)[C@@H]2NCC[C@@H]3CCCC[C@@H]32)c1 [Example 33, 1-Piq-Pro-m-NHCH2 CH2 CH2 -C6 H4 C(=NH)NH2.HCl]	70,900 ng/mL	18,900 ng/mL	59,300 ng/mL
CCS(=O)(=O)N[C@H](CC1CCCCC1)C(=O)N1CCC[C@H]1C(=O)NCCCCNC(=N)N [Example 2, EtSO2 -D-Cha-Pro-Agm.HCl]		170 ng/mL	
N=C(N)c1ccc(CNC(=O)[C@@H]2CCCN2C(=O)[C@@H](CC2CCCCC2)NCC(=O)O)nn1 [Example 69, HO2 CCH2 -D-Cha-Pro-3-NHCH2 -6-amidinopyridazine.HCl]	220 ng/mL	5. ng/mL	110 ng/mL
NCc1cccc(CNC(=O)[C@@H]2CCCN2C(=O)[C@H](N)Cc2ccccc2)c1 [Example 11, D-Phe-Pro-m-NHCH2 C6 H4 CH2 NH2.HCl]		8,800 ng/mL	
O=C(O)CN[C@H](CC1CCCCC1)C(=O)N1CCC[C@H]1C(=O)NCCC1CCNCC1 [Example 54, HO2 CCH2 -D-Cha-Pro-4-NHCH2 CH2 -piperidine.HCl]	2,200 ng/mL	140 ng/mL	3,300 ng/mL
CCOC(=O)N[C@H](Cc1ccccc1)C(=O)N1CCC[C@H]1C(=O)NCCCCNC(=N)N [Example 3, EtOCO-D-Phe-Pro-Agm.HCl]		590 ng/mL	
N=C(N)C1=CNC(CNC(=O)[C@@H]2CCCN2C(=O)[C@@H](CC2CCCCC2)NCC(=O)O)CC1 (stereo partly drawn) [Example 68, HO2 CCH2 -D-Cha-Pro-2-NHCH2 -5-amidino-5,6-dehydro-piperidine.HCl]	190 ng/mL	4. ng/mL	49 ng/mL
Nc1ccc(CCNC(=O)[C@@H]2CCCN2C(=O)[C@@H](CC2CCCCC2)NCC(=O)O)cc1 [Example 63, HO2 CCH2 -D-Cha-Pro-4-NHCH2 CH2 C6 H4 NH2.HCl]		680 ng/mL	
N=C(N)NC/C=C/CNC(=O)[C@@H]1CCCN1C(=O)[C@H](N)Cc1ccccc1 (relative stereo) [Example 8, D-Phe-Pro-NHCH2 -trans-CH=CHCH2 NHC(NH)NH2.HCl]		130 ng/mL	
Nc1ccc(CNC(=O)[C@@H]2CCCN2C(=O)[C@H](N)Cc2ccccc2)cc1 [Example 13, D-Phe-Pro-p-NHCH2 C6 H4 NH2.HCl]		660 ng/mL	
Nc1ccc(CNC(=O)[C@@H]2CCCN2C(=O)[C@@H](CC2CCCCC2)NCC(=O)O)cc1 [Example 62, HO2 CCH2 -D-Cha-Pro-4-NHCH2 C6 H4 NH2.HCl]		54 ng/mL	
Nc1ccc(CCNC(=O)[C@@H]2CCCN2C(=O)[C@H](N)Cc2ccccc2)cc1 [Example 14, D-Phe-Pro-p-NHCH2 CH2 C6 H4 NH2.HCl]		21,000 ng/mL	
N=C(N)NCCCNC(=O)[C@@H]1CCCN1C(=O)[C@H](N)Cc1ccccc1 [Example 7, D-Phe-Pro-NH(CH2)3 NHC(NH)NH2.HCl]		490 ng/mL	
NC[C@H]1CC[C@H](CNC(=O)[C@@H]2CCCN2C(=O)[C@H](N)Cc2ccccc2)CC1 (relative stereo) [Example 12, D-Phe-Pro-NHCH2 -trans-4-(aminomethyl)cyclohexane.HCl]		1,700 ng/mL	
